Test results reported in PMC7031696 (Cell chemical biology, 2019).
Like-named read-outs stand apart in the source and are kept apart here.

Experiments:
[1] = test system: Plasmodium falciparum 3D7-A10 parasites; test: Stage specificity assay (8-h exposure of synchronized stages, IC50^8h); format: cell-based; conditions: for IC50: Plasmodium falciparum
[2] = test system: asynchronous 3D7-A10 parasite cultures; test: Standard 72-h exposure asexual blood stage susceptibility assay (IC50^72h); format: cell-based, Plasmodium falciparum; conditions: Plasmodium falciparum, 3D7, 72 h, read-out: Overall (72hr assay) Mean IC50 (IC50^72h)
[3] = test system: 3D7-MR4 trophozoite parasite-infected RBCs; test: Metabolomic profiling (hydrophilic metabolite changes, UHPLC-MS); format: cell-based, Plasmodium falciparum

Q: Which “Ratio lowest IC50 8hr/IC50 72hr” value ([1]; 3D7-A10) does the source give for CN(C)c1ccc2nc3ccc(=[N+](C)C)cc-3sc2c1 [Methylene blue, reference compound] here?
A: 1.8

Q: What about the IC50 ([1]; 3D7, read-out: Early rings Mean IC50 (IC50^8h), 8-h exposure 0–8 hr, 3D7-A10, survival at 60 h) of the same compound?
A: 3.2 nM

Q: And the IC50 ([1]; 3D7, read-out: Early trophozoites Mean IC50 (IC50^8h), 8-h exposure 16–24 hr, 3D7-A10, survival at 60 h)?
A: 5.9 nM

Q: And the IC50 ([1]; 3D7, read-out: Late rings Mean IC50 (IC50^8h), 8-h exposure 8–16 hr, 3D7-A10, survival at 60 h)?
A: 13.3 nM

Q: What about the IC50 ([1]; 3D7, read-out: Late trophozoites Mean IC50 (IC50^8h), 8-h exposure 24–32 hr, 3D7-A10, survival at 60 h) of the same compound?
A: 8.3 nM

Q: What about the IC50 ([1]; 3D7, read-out: Schizonts Mean IC50 (IC50^8h), 8-h exposure 32–40 hr, 3D7-A10, survival at 60 h) of the same compound?
A: 64.8 nM

Q: What about the “Stage of peak activity (Figure 6)” value ([1]; period when the parasite was most susceptible (lowest IC50^8h)) of the same compound?
A: rings and trophozoites

Q: What about the IC50 [2] of the same compound?
A: 1.8 nM

Q: And the “changes within the set of metabolites detected (low fold change group)” value ([3]; 10 × IC50^72h, 2.5 hr, trophozoites)?
A: did not induce major changes

Q: And the “Log2(fold changes) 3-phosphoglycerate” value ([3]; metabolite 3-phosphoglycerate, log2 fold change)?
A: 0.1717

Q: What about the “Log2(fold changes) 4-Pyridoxic acid” value ([3]; metabolite 4-Pyridoxic acid, log2 fold change) of the same compound?
A: 0.0000

Q: What about the “Log2(fold changes) 4-aminobutyrate” value ([3]; metabolite 4-aminobutyrate, log2 fold change) of the same compound?
A: -0.1073

Q: And the “Log2(fold changes) 4-phosphopantetheine” value ([3]; metabolite 4-phosphopantetheine, log2 fold change)?
A: 0.0000

Q: What about the “Log2(fold changes) 4-phosphopantothenate” value ([3]; metabolite 4-phosphopantothenate, log2 fold change) of the same compound?
A: -0.3089

Q: What about the “Log2(fold changes) 5-aminopentanoic acid” value ([3]; metabolite 5-aminopentanoic acid, log2 fold change) of the same compound?
A: 0.0000

Q: What about the “Log2(fold changes) 5-methyl-THF” value ([3]; metabolite 5-methyl-THF, log2 fold change) of the same compound?
A: 0.0000

Q: And the “Log2(fold changes) 5-phosphoribosyl-1-pyrophosphate” value ([3]; metabolite 5-phosphoribosyl-1-pyrophosphate, log2 fold change)?
A: 0.7627

Q: What about the “Log2(fold changes) 6-phospho-D-gluconate” value ([3]; metabolite 6-phospho-D-gluconate, log2 fold change) of the same compound?
A: 0.0184

Q: What about the “Log2(fold change) HVDD” value ([3]; metabolite HVDD) of the same compound?
A: 0.0000

Q: What about the “Log2(fold change) Hydroxyisocaproic acid” value ([3]; metabolite Hydroxyisocaproic acid) of the same compound?
A: 0.0000

Q: And the “Log2(fold change) IDP” value ([3]; metabolite IDP)?
A: 0.2471

Q: And the “Log2(fold change) IMP” value ([3]; metabolite IMP)?
A: -0.1535

Q: What about the “Log2(fold change) Inositol” value ([3]; metabolite Inositol) of the same compound?
A: 0.0000

Q: What about the “Log2(fold change) Isopentyl-PP” value ([3]; metabolite Isopentyl-PP) of the same compound?
A: 0.0000

Q: What about the “Log2(fold change) L-arginino-succinate” value ([3]; metabolite L-arginino-succinate) of the same compound?
A: 0.0000

Q: What about the “Log2(fold change) LD” value ([3]; metabolite LD) of the same compound?
A: -0.0546

Q: And the “Log2(fold change) Myristoyl/tetradecanoyl-CoA” value ([3]; metabolite Myristoyl/tetradecanoyl-CoA)?
A: 0.0000

Q: What about the “Log2(fold change) N-Acetyl-L-alanine” value ([3]; metabolite N-Acetyl-L-alanine) of the same compound?
A: 0.0660

Q: What about the “Log2(fold change) N-acetyl-L-ornithine” value ([3]; metabolite N-acetyl-L-ornithine) of the same compound?
A: -0.0972

Q: And the “Log2(fold change) N-acetyl-glucosamine-1/6-phosphate” value ([3]; metabolite N-acetyl-glucosamine-1/6-phosphate)?
A: -0.3026

Q: What about the “Log2(fold change) N-acetyl-glutamate” value ([3]; metabolite N-acetyl-glutamate) of the same compound?
A: -0.1200

Q: What about the “Log2(fold change) N-acetyl-glutamine” value ([3]; metabolite N-acetyl-glutamine) of the same compound?
A: 0.0000

Q: And the “Log2(fold change) N-carbamoyl-L-aspartate” value ([3]; metabolite N-carbamoyl-L-aspartate)?
A: -0.4399

Q: What about the “Log2(fold change) NAD+” value ([3]; metabolite NAD+) of the same compound?
A: -0.1775

Q: And the “Log2(fold change) NADH” value ([3]; metabolite NADH)?
A: 0.6869

Q: What about the “Log2(fold change) NADP+” value ([3]; metabolite NADP+) of the same compound?
A: 0.0190

Q: What about the “Log2(fold change) NADPH” value ([3]; metabolite NADPH) of the same compound?
A: 0.5257

Q: And the “Log2(fold change) O-acetyl-L-serine” value ([3]; metabolite O-acetyl-L-serine)?
A: 0.0000

Q: What about the “Log2(fold change) Octoluse 8/1P” value ([3]; metabolite Octoluse 8/1P) of the same compound?
A: -0.1481

Q: And the “Log2(fold change) Octoluse Bisphosphate” value ([3]; metabolite Octoluse Bisphosphate)?
A: -0.0868

Q: What about the “Log2(fold change) PD” value ([3]; metabolite PD) of the same compound?
A: -0.1726

Q: What about the “Log2(fold change) PE” value ([3]; metabolite PE) of the same compound?
A: -0.0321

Q: What about the “Log2(fold change) PEE” value ([3]; metabolite PEE) of the same compound?
A: 0.0787

Q: And the “Log2(fold change) PEEK” value ([3]; metabolite PEEK)?
A: 0.2857

Q: And the “Log2(fold change) PVNF” value ([3]; metabolite PVNF)?
A: 0.3021

Q: What about the “Log2(fold change) Pyroglutamic acid” value ([3]; metabolite Pyroglutamic acid) of the same compound?
A: -0.1430

Q: And the “Log2(fold change) Pyrophosphate” value ([3]; metabolite Pyrophosphate)?
A: 0.0000

Q: And the “Log2(fold change) Ribose-5-phosphate” value ([3]; metabolite Ribose-5-phosphate)?
A: 0.0744

Q: What about the “Log2(fold change) S-adenosyl-L-homocysteine” value ([3]; metabolite S-adenosyl-L-homocysteine) of the same compound?
A: -0.2409

Q: And the “Log2(fold change) S-adenosyl-L-methioninamine” value ([3]; metabolite S-adenosyl-L-methioninamine)?
A: 0.0000

Q: And the “Log2(fold change) S-adenosyl-L-methionine” value ([3]; metabolite S-adenosyl-L-methionine)?
A: 0.0000

Q: What about the “Log2(fold change) S-methyl-5'-thioadenosine” value ([3]; metabolite S-methyl-5'-thioadenosine) of the same compound?
A: -0.0807

Q: And the “Log2(fold change) SD” value ([3]; metabolite SD)?
A: -0.0525

Q: What about the “Log2(fold change) SDL” value ([3]; metabolite SDL) of the same compound?
A: 0.0000

Q: What about the “Log2(fold change) SID” value ([3]; metabolite SID) of the same compound?
A: 0.0000

Q: What about the “Log2(fold change) Sedoheptulose bisphosphate” value ([3]; metabolite Sedoheptulose bisphosphate) of the same compound?
A: 0.0024

Q: What about the “Log2(fold change) Thiamine pyrophosphate” value ([3]; metabolite Thiamine pyrophosphate) of the same compound?
A: -0.2290

Q: And the “Log2(fold changes) UDP-D-glucose” value ([3]; metabolite UDP-D-glucose, log2 fold change)?
A: -0.0680

Q: What about the “Log2(fold changes) UDP-D-glucuronate” value ([3]; metabolite UDP-D-glucuronate, log2 fold change) of the same compound?
A: 0.0789

Q: What about the “Log2(fold changes) UDP-N-acetyl-glucosamine” value ([3]; metabolite UDP-N-acetyl-glucosamine, log2 fold change) of the same compound?
A: -0.1825

Q: And the “Log2(fold changes) UDP” value ([3]; metabolite UDP, log2 fold change)?
A: -0.3881

Q: And the “Log2(fold changes) UMP” value ([3]; metabolite UMP, log2 fold change)?
A: -0.2463

Q: What about the “Log2(fold changes) UTP” value ([3]; metabolite UTP, log2 fold change) of the same compound?
A: -0.0408

Q: And the “Log2(fold change) hydroxyphenylpyruvate” value ([3]; metabolite hydroxyphenylpyruvate)?
A: 0.0000

Q: And the “Log2(fold change) hydroxyproline/Aminolevulinate” value ([3]; metabolite hydroxyproline/Aminolevulinate)?
A: 0.0000

Q: What about the “Log2(fold change) hypoxanthine” value ([3]; metabolite hypoxanthine) of the same compound?
A: 0.0000

Q: And the “Log2(fold change) indole” value ([3]; metabolite indole)?
A: 0.0000

Q: And the “Log2(fold change) inosine” value ([3]; metabolite inosine)?
A: -0.4017

Q: What about the “Log2(fold change) isoleucine” value ([3]; metabolite isoleucine) of the same compound?
A: 0.7210

Q: And the “Log2(fold change) lactate” value ([3]; metabolite lactate)?
A: -0.1398

Q: And the “Log2(fold change) leucine” value ([3]; metabolite leucine)?
A: 0.2614

Q: What about the “Log2(fold change) lysine” value ([3]; metabolite lysine) of the same compound?
A: -0.0829

Q: And the “Log2(fold change) malate” value ([3]; metabolite malate)?
A: -0.0400

Q: What about the “Log2(fold change) maleic acid” value ([3]; metabolite maleic acid) of the same compound?
A: -0.0220

Q: And the “Log2(fold change) methionine” value ([3]; metabolite methionine)?
A: 0.1258

Q: What about the “Log2(fold change) myo-inositol” value ([3]; metabolite myo-inositol) of the same compound?
A: -0.2003

Q: And the “Log2(fold change) nicotinamide mononucleotide” value ([3]; metabolite nicotinamide mononucleotide)?
A: -0.1519

Q: And the “Log2(fold change) nicotinate” value ([3]; metabolite nicotinate)?
A: -0.3017

Q: What about the “Log2(fold change) ornithine” value ([3]; metabolite ornithine) of the same compound?
A: 0.0000

Q: And the “Log2(fold change) orotate” value ([3]; metabolite orotate)?
A: -0.5750

Q: And the “Log2(fold change) orotidine-5'-phosphate” value ([3]; metabolite orotidine-5'-phosphate)?
A: -0.6269

Q: And the “Log2(fold change) oxaloacetate” value ([3]; metabolite oxaloacetate)?
A: 0.0000

Q: What about the “Log2(fold change) p-aminobenzoate” value ([3]; metabolite p-aminobenzoate) of the same compound?
A: 0.0000

Q: And the “Log2(fold change) p-hydroxybenzoate” value ([3]; metabolite p-hydroxybenzoate)?
A: 0.0000

Q: What about the “Log2(fold change) pantothenate” value ([3]; metabolite pantothenate) of the same compound?
A: -1.6576

Q: What about the “Log2(fold change) phenylalanine” value ([3]; metabolite phenylalanine) of the same compound?
A: 0.0379

Q: What about the “Log2(fold change) phenylpyruvate” value ([3]; metabolite phenylpyruvate) of the same compound?
A: 0.0000

Q: What about the “Log2(fold change) phosphoenolpyruvate” value ([3]; metabolite phosphoenolpyruvate) of the same compound?
A: 0.1672

Q: What about the “Log2(fold change) prephenate” value ([3]; metabolite prephenate) of the same compound?
A: 0.0000

Q: What about the “Log2(fold change) proline” value ([3]; metabolite proline) of the same compound?
A: 0.1190

Q: And the “Log2(fold change) pyridoxine” value ([3]; metabolite pyridoxine)?
A: -0.1182

Q: And the “Log2(fold change) pyruvate” value ([3]; metabolite pyruvate)?
A: -0.0447

Q: And the “Log2(fold change) riboflavin” value ([3]; metabolite riboflavin)?
A: -0.0900

Q: And the “Log2(fold change) ribose” value ([3]; metabolite ribose)?
A: 0.0000

Q: What about the “Log2(fold change) ribose-phosphate” value ([3]; metabolite ribose-phosphate) of the same compound?
A: -0.1993

Q: What about the “Log2(fold change) ribulose-5-phosphate” value ([3]; metabolite ribulose-5-phosphate) of the same compound?
A: -0.1201

Q: What about the “Log2(fold change) serine” value ([3]; metabolite serine) of the same compound?
A: -0.0692

Q: What about the “Log2(fold change) sn-glycerol-3-phosphate” value ([3]; metabolite sn-glycerol-3-phosphate) of the same compound?
A: 0.0549

Q: And the “Log2(fold change) succinate/Methylmalonic acid” value ([3]; metabolite succinate/Methylmalonic acid)?
A: 0.4289

Q: And the “Log2(fold change) succinyl-CoA/methylmalonyl-CoA” value ([3]; metabolite succinyl-CoA/methylmalonyl-CoA)?
A: 0.0000

Q: What about the “Log2(fold change) taurine” value ([3]; metabolite taurine) of the same compound?
A: 0.1250

Q: What about the “Log2(fold change) thiamine” value ([3]; metabolite thiamine) of the same compound?
A: -0.2233

Q: And the “Log2(fold change) threonine/homoserine” value ([3]; metabolite threonine/homoserine)?
A: -0.1021

Q: What about the “Log2(fold change) thymidine” value ([3]; metabolite thymidine) of the same compound?
A: 0.0000

Q: What about the “Log2(fold changes) thymine” value ([3]; metabolite thymine, log2 fold change) of the same compound?
A: 0.0000

Q: And the “Log2(fold changes) trehalose-6-Phosphate” value ([3]; metabolite trehalose-6-Phosphate, log2 fold change)?
A: 0.0000

Q: What about the “Log2(fold changes) tryptophan” value ([3]; metabolite tryptophan, log2 fold change) of the same compound?
A: 0.0214

Q: What about the “Log2(fold changes) tyrosine” value ([3]; metabolite tyrosine, log2 fold change) of the same compound?
A: 0.0876

Q: And the “Log2(fold changes) uridine” value ([3]; metabolite uridine, log2 fold change)?
A: -0.4227
